Results published in patent EP2140864A2 (H. Lundbeck A/S, priority 2001, dated 2002).
Marks after values point to notes of the source that are not given here.

Tested on: Male albino Sprague-Dawley rats
Experiment: Rat Social Interaction Test (SIT)
Type: in vivo
Settings: for Social Interaction: unfamiliar cage mates in a familiar arena
[1] = 10 mg/kg i.p., 1 hour prior to testing
[2] = 30 mg/kg i.p., 1 hour prior to testing
[3] = 0.03 mg/kg p.o., one hour before test
[4] = 0.1 mg/kg p.o., one hour before test
[5] = 0.3 mg/kg p.o., one hour before test
[6] = 1 mg/kg p.o., one hour before test

## O=C1C(=Nc2cccc(C(F)(F)F)c2)c2ccccc2N1c1ccccc1 [Example 92, 1-PHENYL-3- [[3-(TRIFLUOROMETHYL)PHENYL]IMINO]-1,3-DIHYDRO-2H-INDOL-2-ONE]
[1]
  Grooming bouts: 6.1 ± 0.5
  Rearings: 47 ± 8^a
[2]
  Grooming bouts: 6.2 ± 0.7
  Rearings: 45 ± 5^b
  Squares Crossed: 368 ± 36
100 mg/kg i.p., 1 hour prior to testing
  Squares Crossed: 195 ± 19^c

## Cc1ccc(Nc2cc(N3CCCCC3)nc(N3CCN(c4ncccc4C(F)(F)F)CC3)n2)cc1 [Example 34]
[3]
  Grooming bouts: 4.0 ± 0.4^&
  Rearing: 27 ± 3
  Squares Crossed: 312 ± 23
  Social Interaction: 62 ± 11 s
[4]
  Grooming bouts: 7.6 ± 0.5^+
  Rearing: 40 ± 5
  Squares Crossed: 295 ± 40
  Social Interaction: 66 ± 7 s
[5]
  Grooming bouts: 7.2 ± 1.1
  Rearing: 27 ± 2^S
  Squares Crossed: 363 ± 17
  Social Interaction: 53 ± 6 s
[6]
  Grooming bouts: 7.3 ± 0.8
  Rearing: 40 ± 1
  Squares Crossed: 343 ± 15^@
  Social Interaction: 69 ± 6 s
0.03, 0.1, 0.3 or 1 mg/kg p.o., single administration
  increase in the duration of social interaction compared to vehicle: 2-2.6 fold
